Assay results reported in patent US20060069132A1, “Azolecarboxamide herbicides” (priority 2004, published 2006).

Experiments:
[1] = tested on: velvetleaf; test: Test A pre-/postemergence herbicide test; format: in vivo, Abutilon theophrasti
How it was run: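 Visual injury scores on a 0–100 scale (100 = complete control) taken about ten days post-treatment in greenhouse against untreated controls; dash means no result. Treatments: preemergence soil spray and postemergence spray to runoff on one- to two-leaf plants 2 to 10 cm tall, surfactant-containing formulation.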

[2] = tested on: velvetleaf; test: Test B pre-/postemergence herbicide test; format: in vivo, Abutilon theophrasti; details: for Velvetleaf plant response rating: postemergence, visual rating, scale 0 (no effect) to 100 (complete control)
How it was run: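 Seeds were planted and treated preemergence with compounds formulated in a non-phytotoxic solvent mixture containing surfactant, while plants at the 1- to 4-leaf stage (2 to 18 cm) received postemergence sprays. Flooded paddy plants were grown to the 2-leaf stage. After 13 to 15 days in a greenhouse, injury was visually rated 0–100 against untreated controls.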

[3] = tested on: bermudagrass; test: Test C pre-/postemergence herbicide test; format: in vivo, Cynodon dactylon; details: for Bermudagrass plant response rating: 500 g ai/ha
How it was run: (§1)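 Visual ratings on a 0–100 scale (100 = complete control) made versus untreated controls after 12 to 14 greenhouse days. Test chemicals, formulated in surfactant-containing non-phytotoxic solvent, applied preemergence to planted seeds or postemergence to 1- to 4-leaf plants (2 to 18 cm).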

[4] = tested on: cocklebur; test: Test C pre-/postemergence herbicide test; format: in vivo, Xanthium strumarium; details: for Cocklebur plant response rating: 500 g ai/ha
How it was run: as §1

[5] = tested on: large crabgrass; test: Test C pre-/postemergence herbicide test; format: in vivo, Digitaria sanguinalis; details: for Crabgrass, Large plant response rating: 500 g ai/ha
How it was run: as §1

[6] = tested on: kochia; test: Test C pre-/postemergence herbicide test; format: in vivo, Kochia scoparia; details: for Kochia plant response rating: 500 g ai/ha
How it was run: as §1

[7] = tested on: yellow nutsedge; test: Test C pre-/postemergence herbicide test; format: in vivo, Cyperus esculentus; details: for Nutsedge, Yellow plant response rating: 500 g ai/ha
How it was run: as §1

[8] = tested on: soybean; test: Test C pre-/postemergence herbicide test; format: in vivo, Glycine max; details: for Soybean plant response rating: 500 g ai/ha
How it was run: as §1

[9] = Postemergence, 500 g ai/ha, 0 to 100 scale, 0 no effect, 100 complete control
[10] = Postemergence, 2000 g ai/ha, 0 to 100 scale, 0 no effect, 100 complete control
[11] = Preemergence, 2000 g ai/ha, visual rating, 0 to 100 scale (0 no effect, 100 complete control)
[12] = preemergence, 500 g ai/ha, visual injury, 0 to 100 scale (0 no effect, 100 complete control)
[13] = 500 g ai/ha, visual rating 0-100, 0 no effect, 100 complete control, preemergence
[14] = 125 g ai/ha, scale 0 (no effect) to 100 (complete control), visual, 12 to 14 days, preemergence
[15] = 250 g ai/ha, scale 0 to 100 (0 no effect, 100 complete control), visual, 12 to 14 days, preemergence
[16] = Postemergence, 250 g ai/ha, scale 0 to 100, 0 no effect, 100 complete control
[17] = Preemergence, scale 0 to 100, 0 no effect, 100 complete control
[18] = postemergence, 125 g ai/ha, scale 0 to 100
[19] = 250 g ai/ha, scale 0-100, preemergence
[20] = 62 g ai/ha, preemergence, scale 0 to 100

CCn1nc(C(C)(C)C)cc1C(=O)Nc1cccc(SC(F)(F)F)c1 [Compound 130]
0: Plant response rating (0 = no effect, 100 = complete control), Cocklebur ([4]; 62 g ai/ha, preemergence) | Plant response rating (0 = no effect, 100 = complete control), Kochia ([6]; 62 g ai/ha, preemergence) | Plant response rating, Kochia [6, 14] | Plant response rating (0 = no effect, 100 = complete control), Nutsedge, Yellow ([7]; 62 g ai/ha, preemergence) | Plant response rating, Nutsedge, Yellow [7, 14] | Nutsedge, Yellow plant response rating ([7]; Postemergence, scale 0 to 100) | Plant response rating, Nutsedge, Yellow [7, 16] | Nutsedge, Yellow plant response rating [7, 17] | Plant response rating, Nutsedge, Yellow [7, 18] | Plant response rating (0 = no effect, 100 = complete control), Soybean ([8]; 62 g ai/ha, preemergence) | Plant response rating, Soybean [8, 14]
20: Velvetleaf plant response rating [1, 9] | Plant response rating, Velvetleaf [1, 10] | Velvetleaf plant response rating [1, 12] | Plant response rating, Crabgrass, Large [5, 16]
85: Plant response rating, Bermudagrass [3, 18] | Kochia plant response rating ([6]; Postemergence, scale 0 to 100)
40: Plant response rating, Soybean [8, 16] | Plant response rating, Soybean [8, 18]
100: Plant response rating, Bermudagrass [3, 15] | Bermudagrass plant response rating [3, 17] | Cocklebur plant response rating ([4]; Postemergence, scale 0 to 100) | Cocklebur plant response rating [4, 17] | Kochia plant response rating [6, 17]
70: Velvetleaf plant response rating ([2]; 125 g ai/ha) | Velvetleaf plant response rating ([2]; 500 g ai/ha) | Plant response rating, Cocklebur [4, 15] | Plant response rating, Kochia [6, 16] | Soybean plant response rating ([8]; Postemergence, scale 0 to 100)
30: Velvetleaf plant response rating [1, 11] | Plant response rating, Cocklebur [4, 18] | Plant response rating, Kochia [6, 18]
95: Plant response rating, Crabgrass, Large [5, 15] | Crabgrass, Large plant response rating [5, 17]
10: Plant response rating, Velvetleaf ([2]; preemergence, 125 g ai/ha, 0 to 100 scale, 0 is no effect, 100 is complete control) | Soybean plant response rating [8, 17]
90: Plant response rating, Velvetleaf [2, 13] | Plant response rating, Bermudagrass [3, 14] | Bermudagrass plant response rating ([3]; Postemergence, scale 0 to 100) | Plant response rating, Bermudagrass [3, 16] | Plant response rating, Cocklebur [4, 16] | Plant response rating, Crabgrass, Large [5, 14] | Crabgrass, Large plant response rating ([5]; Postemergence, scale 0 to 100)
60: Plant response rating (0 = no effect, 100 = complete control), Bermudagrass ([3]; 62 g ai/ha, preemergence)

CC(=NO)c1cccc(NC(=O)c2sc(C(C)(C)C)nc2C)c1 [Compound 195]
30: Plant response rating, Bermudagrass [3, 19]
20: Plant response rating, Velvetleaf [2, 13] | Velvetleaf plant response rating ([2]; 125 g ai/ha)
85: Kochia plant response rating [6, 17]
40: Velvetleaf plant response rating ([2]; 500 g ai/ha)
70: Crabgrass, Large plant response rating [5, 17] | Nutsedge, Yellow plant response rating [7, 17]
65: Bermudagrass plant response rating [3, 17]
0: Velvetleaf plant response rating [1, 9] | Velvetleaf plant response rating [1, 12] | Plant response rating, Bermudagrass ([3]; 62 g ai/ha, preemergence, scale 0 to 100, 0 no effect, 100 complete control) | Plant response rating, Bermudagrass [3, 14] | Plant response rating, Cocklebur [4, 20] | Plant response rating, Cocklebur [4, 14] | Plant response rating, Cocklebur [4, 19] | Cocklebur plant response rating [4, 17] | Plant response rating, Crabgrass, Large [5, 20] | Plant response rating, Crabgrass, Large [5, 14] | Plant response rating, Kochia [6, 20] | Plant response rating, Kochia [6, 14] | Plant response rating, Nutsedge, Yellow [7, 20] | Plant response rating, Nutsedge, Yellow [7, 14] | Plant response rating, Nutsedge, Yellow [7, 19] | Plant response rating, Soybean [8, 20] | Plant response rating, Soybean [8, 14] | Plant response rating, Soybean [8, 19] | Soybean plant response rating [8, 17]
15: Plant response rating, Velvetleaf [1, 10] | Velvetleaf plant response rating [1, 11]
5: Plant response rating, Crabgrass, Large [5, 19]
10: Velvetleaf plant response rating (0 to 100 scale) ([2]; 125 g ai/ha, 0 = no effect, 100 = complete control, preemergence) | Plant response rating, Kochia [6, 19]
